Measurements from ChEMBL document CHEMBL3046284, “Synthesis, insecticidal activity, and QSAR of novel nitromethylene neonicotinoids with tetrahydropyridine fixed cis configuration and exo-ring ether modification” (2007).

These compounds were tested on Aphis craccivora (assay: Insecticidal activity against Aphis craccivora (cowpea aphid) assessed as mortality at 500 mg/l measured after 24 hr).
Format: functional
`O=[N+]([O-])C1=C2N(Cc3ccc(Cl)nc3)CCN2C(OC/C=C\c2ccccc2)CC1` (centres undefined) showed a mortality at 500 µg/mL of less than 10%. `CCOCCOC1CCC([N+](=O)[O-])=C2N(Cc3ccc(Cl)nc3)CCN21` (centres undefined) showed a mortality at 500 µg/mL of 10.2%. In the case of `O=[N+]([O-])C1=C2N(Cc3ccc(Cl)nc3)CCN2C(O)CC1` (centres undefined), the mortality at 500 µg/mL is reported as greater than 90%. `COC1CCC([N+](=O)[O-])=C2N(Cc3ccc(Cl)nc3)CCN21` (centres undefined) gave a mortality at 500 µg/mL greater than 90%. `CCOC1CCC([N+](=O)[O-])=C2N(Cc3ccc(Cl)nc3)CCN21` (centres undefined) showed a mortality at 500 µg/mL greater than 90%. In the case of `CCCOC1CCC([N+](=O)[O-])=C2N(Cc3ccc(Cl)nc3)CCN21` (centres undefined), the mortality at 500 µg/mL is reported as greater than 90%. `CC(C)OC1CCC([N+](=O)[O-])=C2N(Cc3ccc(Cl)nc3)CCN21` (centres undefined) was tested, and the mortality at 500 µg/mL was greater than 90%. For `O=[N+]([O-])C1=C2N(Cc3ccc(Cl)nc3)CCN2C(OCCCl)CC1` (centres undefined), the mortality at 500 µg/mL was 44.8%. `O=[N+]([O-])C1=C2N(Cc3ccc(Cl)nc3)CCN2C(OCC(F)(F)F)CC1` (centres undefined) showed a mortality at 500 µg/mL of 10.3%. For `CCCCOC1CCC([N+](=O)[O-])=C2N(Cc3ccc(Cl)nc3)CCN21` (centres undefined), the mortality at 500 µg/mL was 77.7%. `CCC(C)OC1CCC([N+](=O)[O-])=C2N(Cc3ccc(Cl)nc3)CCN21` (centres undefined) gave a mortality at 500 µg/mL of less than 10%. With `CC(C)COC1CCC([N+](=O)[O-])=C2N(Cc3ccc(Cl)nc3)CCN21` (centres undefined) the mortality at 500 µg/mL was 76.3%. `CC(C)(C)OC1CCC([N+](=O)[O-])=C2N(Cc3ccc(Cl)nc3)CCN21` (centres undefined) was tested, and the mortality at 500 µg/mL was 72.8%. `CCCCCOC1CCC([N+](=O)[O-])=C2N(Cc3ccc(Cl)nc3)CCN21` (centres undefined) was tested, and the mortality at 500 µg/mL was 62.6%. `CC(C)CCOC1CCC([N+](=O)[O-])=C2N(Cc3ccc(Cl)nc3)CCN21` (centres undefined) was tested, and the mortality at 500 µg/mL was 24.4%. `O=[N+]([O-])C1=C2N(Cc3ccc(Cl)nc3)CCN2C(OCc2ccccc2)CC1` (centres undefined) was tested, and the mortality at 500 µg/mL was greater than 90%. Work on `O=[N+]([O-])C1=C2N(Cc3ccc(Cl)nc3)CCN2C(OCc2ccc(Cl)nc2)CC1` (centres undefined) yielded a mortality at 500 µg/mL of 50%. `C#CCOC1CCC([N+](=O)[O-])=C2N(Cc3ccc(Cl)nc3)CCN21` (centres undefined) was tested, and the mortality at 500 µg/mL was 46.9%. For `CC(C)=CCOC1CCC([N+](=O)[O-])=C2N(Cc3ccc(Cl)nc3)CCN21` (centres undefined), the mortality at 500 µg/mL was 15.9%. `COC1CC(C)C([N+](=O)[O-])=C2N(Cc3ccc(Cl)nc3)CCN21` (centres undefined) showed a mortality at 500 µg/mL greater than 90%. Compound `CC1CC(O)N2CCN(Cc3ccc(Cl)nc3)C2=C1[N+](=O)[O-]` (centres undefined) has a mortality at 500 µg/mL greater than 90%. `CCOC1CC(C)C([N+](=O)[O-])=C2N(Cc3ccc(Cl)nc3)CCN21` (centres undefined) gave a mortality at 500 µg/mL greater than 90%. For `O=[N+]([O-])/N=C1\NCCN1Cc1ccc(Cl)nc1` [IMIDACLOPRID], the mortality at 500 µg/mL was greater than 90%.

The compounds below were run on Aphis craccivora (assay: Insecticidal activity against Aphis craccivora (cowpea aphid) assessed as mortality measured after 24 hr).
Format: functional
With `O=[N+]([O-])C1=C2N(Cc3ccc(Cl)nc3)CCN2C(O)CC1` (centres undefined) the LC50 was 188 µM. With `COC1CCC([N+](=O)[O-])=C2N(Cc3ccc(Cl)nc3)CCN21` (centres undefined) the LC50 was 132 µM. `CCOC1CCC([N+](=O)[O-])=C2N(Cc3ccc(Cl)nc3)CCN21` (centres undefined) showed an LC50 of 96 µM. `CCCOC1CCC([N+](=O)[O-])=C2N(Cc3ccc(Cl)nc3)CCN21` (centres undefined) gave an LC50 of 105 µM. `CC(C)OC1CCC([N+](=O)[O-])=C2N(Cc3ccc(Cl)nc3)CCN21` (centres undefined) gave an LC50 of 260 µM. Work on `O=[N+]([O-])C1=C2N(Cc3ccc(Cl)nc3)CCN2C(OCc2ccccc2)CC1` (centres undefined) yielded an LC50 of 573 µM. In the case of `O=[N+]([O-])C1=C2N(Cc3ccc(Cl)nc3)CCN2C(OCc2ccc(Cl)nc2)CC1` (centres undefined), the LC50 is reported as 1150 µM. `COC1CC(C)C([N+](=O)[O-])=C2N(Cc3ccc(Cl)nc3)CCN21` (centres undefined) showed an LC50 of 148 µM. `CC1CC(O)N2CCN(Cc3ccc(Cl)nc3)C2=C1[N+](=O)[O-]` (centres undefined) was tested, and the LC50 was 97 µM. `CCOC1CC(C)C([N+](=O)[O-])=C2N(Cc3ccc(Cl)nc3)CCN21` (centres undefined) showed an LC50 of 186 µM. Work on `O=[N+]([O-])/N=C1\NCCN1Cc1ccc(Cl)nc1` [IMIDACLOPRID] yielded an LC50 of 35 µM.
